Results taken from ChEMBL document CHEMBL5052830, “Foxm1 inhibitor compositions and methods of using the same” (2021).
Blank lines part the entries; values can stand above or below the compound they belong to. The source made the active and inactive calls. The rule behind the calls is not given here.

What was measured:
[1] = Half-life in female CD-1 mouse at 60 mg/kg, sc administered as single dose and measured by LC-MS/MS analysis; assay type: ADME, organism-based; conditions: in vivo
[2] = Half-life in female CD-1 mouse at 40 mg/kg, sc administered as single dose and measured by LC-MS/MS analysis; assay type: ADME, organism-based; conditions: in vivo
DT-22 [3] = assay: Antitumor activity in human DT-22-Luc cells xenografted female NSG mouse assessed as reduction in tumor growth at 20 mg/kg, sc administered daily until day 20 and followed by 10 mg/kg every other day; assay type: functional, organism-based
[4] = Toxicity in human DT-22-Luc cells xenografted female NSG mouse assessed as as effect on body weight at 20 mg/kg, sc administered daily until day 20 and followed by 10 mg/kg every other day; assay type: organism-based; conditions: in vivo
DT-22 [5] = assay: Antitumor activity in human DT-22 cells xenografted NSG mouse assessed as reduction in tumor growth at 40 mg/kg, sc administered daily for 4 days followed by 20 mg/kg every third day until day 13 and followed by 10 mg/kg every third day; assay type: functional, organism-based; conditions: time 4.0 day
[6] = target: T1, Forkhead box protein M1 (Homo sapiens) (UniProt Q08050); assay: Inhibition of FOXM1 in human ER-negative DT-22 cells at 8 uM assessed as reduction in PLK1 expression measured by qRT-PCR method; assay type: cell-based
T1 sequence (whole entry): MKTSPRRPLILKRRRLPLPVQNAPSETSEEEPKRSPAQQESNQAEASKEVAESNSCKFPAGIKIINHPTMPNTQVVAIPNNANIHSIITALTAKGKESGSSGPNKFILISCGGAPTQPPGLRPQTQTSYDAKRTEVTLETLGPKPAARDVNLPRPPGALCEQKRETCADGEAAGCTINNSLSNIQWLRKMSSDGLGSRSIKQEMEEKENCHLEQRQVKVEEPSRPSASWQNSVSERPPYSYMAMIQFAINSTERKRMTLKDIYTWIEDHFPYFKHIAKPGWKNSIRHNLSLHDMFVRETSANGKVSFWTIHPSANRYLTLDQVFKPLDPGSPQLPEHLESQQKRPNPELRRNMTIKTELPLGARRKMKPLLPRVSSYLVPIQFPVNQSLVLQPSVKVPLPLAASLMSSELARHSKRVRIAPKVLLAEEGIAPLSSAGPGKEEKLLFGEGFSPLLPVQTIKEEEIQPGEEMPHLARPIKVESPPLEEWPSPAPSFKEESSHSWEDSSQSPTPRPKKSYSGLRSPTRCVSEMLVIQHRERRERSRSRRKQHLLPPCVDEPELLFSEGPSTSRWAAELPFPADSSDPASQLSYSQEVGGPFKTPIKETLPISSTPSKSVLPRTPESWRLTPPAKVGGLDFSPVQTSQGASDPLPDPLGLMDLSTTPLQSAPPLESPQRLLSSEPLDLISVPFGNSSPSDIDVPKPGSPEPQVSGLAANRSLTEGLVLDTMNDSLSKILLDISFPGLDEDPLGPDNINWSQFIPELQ

[7] = target: T1, Forkhead box protein M1 (Homo sapiens); assay: Inhibition of FOXM1 in human ER-positive MCF7 cells at 8 uM assessed as reduction in FOXM1C expression measured by qRT-PCR method; assay type: cell-based
[8] = target: T1, Forkhead box protein M1 (Homo sapiens); assay: Inhibition of FOXM1 in human ER-positive MCF7 cells at 8 uM assessed as reduction in PLK1 expression measured by qRT-PCR method; assay type: cell-based
[9] = target: T1, Forkhead box protein M1 (Homo sapiens); assay: Inhibition of FOXM1 in human ER-negative DT-22 cells at 8 uM assessed as reduction in FOXM1C expression measured by qRT-PCR method; assay type: cell-based
[10] = target: T1, Forkhead box protein M1 (Homo sapiens); assay: Inhibition of FOXM1 in human ER-positive MCF7 cells at 8 uM assessed as increase in ATF3 expression measured by qRT-PCR method; assay type: cell-based
[11] = Cmax in mouse at 20 mg/kg, sc measured by LC-MS/MS analysis; assay type: ADME, organism-based; design: route subcutaneous, dose 20 mg/kg; conditions: in vivo
[12] = target: T1, Forkhead box protein M1 (Homo sapiens); assay: Inhibition of FOXM1 in human ER-negative DT-22 cells at 8 uM assessed as reduction in AURKB expression measured by qRT-PCR method; assay type: cell-based
[13] = target: T1, Forkhead box protein M1 (Homo sapiens); assay: Inhibition of FOXM1 in human ER-negative DT-22 cells at 8 uM assessed as reduction in CCNB1 expression measured by qRT-PCR method; assay type: cell-based
[14] = target: T1, Forkhead box protein M1 (Homo sapiens); assay: Inhibition of FOXM1 in human ER-positive MCF7 cells at 8 uM assessed as reduction in AURKB expression measured by qRT-PCR method; assay type: cell-based
[15] = AUC in mouse at 20 mg/kg, sc measured by LC-MS/MS analysis; assay type: ADME, organism-based; design: dose 20 mg/kg; conditions: in vivo
[16] = Half-life in mouse at 20 mg/kg, sc measured by LC-MS/MS analysis; assay type: ADME, organism-based; conditions: in vivo
[17] = target: T1, Forkhead box protein M1 (Homo sapiens); assay: Inhibition of FOXM1 in human ER-negative DT-22 cells at 8 uM assessed as increase in ATF3 expression measured by qRT-PCR method; assay type: cell-based
[18] = target: T1, Forkhead box protein M1 (Homo sapiens); assay: Inhibition of FOXM1 in human ER-positive MCF7 cells at 8 uM assessed as reduction in CCNB1 expression measured by qRT-PCR method; assay type: cell-based
DT-22 [19] = assay: Antitumor activity in human DT-22 cells xenografted NSG mouse assessed as reduction in CENPF expression at 5 to 10 mg/kg, sc administered daily until day 21 and then every other day; assay type: functional, organism-based; conditions: dose 5-10 mg/kg
MCF-7/TAMR-1 = assay: Antiproliferative activity against human MCF-7/TAMR-1 cells measured by WST-1 assay; assay type: functional, cell-based
DT-22 [20] = assay: Antitumor activity in human DT-22 cells xenografted NSG mouse assessed as reduction in tumor growth at 5 to 10 mg/kg, sc administered daily until day 21 and then every other day; assay type: functional, organism-based; conditions: dose 5-10 mg/kg
DT-22 [21] = assay: Antitumor activity in human DT-22 cells xenografted NSG mouse assessed as reduction in FOXM1B expression at 5 to 10 mg/kg, sc administered daily until day 21 and then every other day; assay type: functional, organism-based; conditions: dose 5-10 mg/kg
DT-22 [22] = assay: Antitumor activity in human DT-22 cells xenografted NSG mouse assessed as reduction in total FOXM1 expression at 5 to 10 mg/kg, sc administered daily until day 21 and then every other day; assay type: functional, organism-based; conditions: dose 5-10 mg/kg
DT-22 [23] = assay: Antitumor activity in human DT-22 cells xenografted NSG mouse assessed as reduction in FOXM1C expression at 5 to 10 mg/kg, sc administered daily until day 21 and then every other day; assay type: functional, organism-based; conditions: dose 5-10 mg/kg
[24] = AUC (0 to 48 hrs) in female CD-1 mouse at 40 mg/kg, sc administered as single dose and measured by LC-MS/MS analysis; assay type: ADME, organism-based; design: time < 48 hr, route subcutaneous, dose 40 mg/kg; conditions: in vivo
DT-22 [25] = assay: Antitumor activity in human DT-22-Luc cells xenografted female NSG mouse assessed as reduction in tumor growth at 2 to 6 mg/kg, sc; assay type: functional, organism-based; conditions: dose 2-6 mg/kg
[26] = Toxicity in human DT-22-Luc cells xenografted female NSG mouse assessed as as effect on body weight at 2 to 6 mg/kg, sc; assay type: organism-based; conditions: in vivo, dose 2-6 mg/kg
[27] = target: T1, Forkhead box protein M1 (Homo sapiens); assay: Inhibition of FOXM1 in human ER-negative DT-22 cells at 5 uM assessed as reduction in CCNB1 expression measured by qRT-PCR method; assay type: cell-based
MCF7 = assay: Antitumor activity in human MCF7 cells xenografted ovariectomized NSG mouse assessed as reduction in tumor growth at 100 mg/kg, sc administered daily; assay type: functional, organism-based
[28] = target: T1, Forkhead box protein M1 (Homo sapiens); assay: Inhibition of FOXM1 in human ER-negative DT-22 cells at 5 uM assessed as reduction in AURKB expression measured by qRT-PCR method; assay type: cell-based
[29] = target: T1, Forkhead box protein M1 (Homo sapiens); assay: Inhibition of FOXM1 in human ER-positive MCF7 cells at 5 uM assessed as reduction in AURKB expression measured by qRT-PCR method; assay type: cell-based
[30] = target: T1, Forkhead box protein M1 (Homo sapiens); assay: Inhibition of FOXM1 in human ER-negative DT-22 cells at 5 uM assessed as reduction in FOXM1C expression measured by qRT-PCR method; assay type: cell-based
[31] = target: T1, Forkhead box protein M1 (Homo sapiens); assay: Inhibition of FOXM1 in human ER-negative DT-22 cells at 5 uM assessed as reduction in PLK1 expression measured by qRT-PCR method; assay type: cell-based
[32] = target: T1, Forkhead box protein M1 (Homo sapiens); assay: Inhibition of FOXM1 in human ER-positive MCF7 cells at 5 uM assessed as reduction in FOXM1C expression measured by qRT-PCR method; assay type: cell-based
[33] = target: T1, Forkhead box protein M1 (Homo sapiens); assay: Inhibition of FOXM1 in human ER-positive MCF7 cells at 5 uM assessed as reduction in PLK1 expression measured by qRT-PCR method; assay type: cell-based
DT-22 [34] = assay: Antitumor activity in human DT-22 cells xenografted NSG mouse assessed as reduction in tumor growth at 100 mg/kg, po administered daily for 7 days; assay type: functional, organism-based; conditions: time 7.0 day
[35] = target: T1, Forkhead box protein M1 (Homo sapiens); assay: Inhibition of FOXM1 in human ER-positive MCF7 cells at 5 uM assessed as increase in ATF3 expression measured by qRT-PCR method; assay type: cell-based
[36] = target: T1, Forkhead box protein M1 (Homo sapiens); assay: Inhibition of FOXM1 in human ER-negative DT-22 cells at 5 uM assessed as increase in ATF3 expression measured by qRT-PCR method; assay type: cell-based
[37] = target: T1, Forkhead box protein M1 (Homo sapiens); assay: Inhibition of FOXM1 in human ER-positive MCF7 cells at 5 uM assessed as reduction in CCNB1 expression measured by qRT-PCR method; assay type: cell-based
[38] = Half-life in female CD-1 mouse at 20 mg/kg, po administered as single dose and measured by LC-MS/MS analysis; assay type: ADME, organism-based; conditions: in vivo

Compound: CN1CCN(CCCCCCOc2ccc(C(=C3C4CC5CC(C4)CC3C5)c3ccc(OCCCCCCN4CCN(C)CC4)cc3)cc2)CC1
half-life [1]: 45.6 h

Compound: C[N+]1(CCCCCCOc2ccc(C(=C3C4CC5CC(C4)CC3C5)c3ccc(OCCCCCC[N+]4(C)CCCC4)cc3)cc2)CCCC1
Activity (DT-22 [5]): Active

Compound: Nc1c(C(=O)Nc2ccc(F)cc2)sc2nc(-c3cccs3)cc(C(F)(F)F)c12
inhibition [6]: Active
inhibition [7]: Active
inhibition [8]: Active
inhibition [9]: Active
inhibition [10]: Active
Cmax [11]: 40 nM
inhibition [12]: Active
inhibition [13]: Active
inhibition [14]: Active
AUC [15]: 1.2 µM·h
half-life [16]: 21.8 h
inhibition [17]: Active
inhibition [18]: Active

Compound: C[N+]1(CCCCCCOc2ccc(C(c3ccc(OCCCCCC[N+]4(C)CCCCC4)cc3)=C3C4C[C@H]5C[C@@H](C4)C[C@H]3C5)cc2)CCCCC1
Activity (DT-22 [5]): Active

Compound: C[N+]1(CCCCCCOc2ccc(C(c3ccc(OCCCCCC[N+]4(C)CCCCCC4)cc3)=C3C4C[C@H]5C[C@@H](C4)C[C@H]3C5)cc2)CCCCCC1
Activity (DT-22 [19]): Active
Activity (MCF-7/TAMR-1): Active
Activity (DT-22 [20]): Active
Activity (DT-22 [21]): Active
Activity (DT-22 [5]): Active
Activity (DT-22 [22]): Active
Activity (DT-22 [23]): Active

Compound: CC[N+](C)(CC)CCCCCCOc1ccc(C(c2ccc(OCCCCCC[N+](C)(CC)CC)cc2)=C2C3C[C@H]4C[C@@H](C3)C[C@H]2C4)cc1.[I-].[I-]
half-life [2]: 38.6 h
Activity (DT-22 [25]): Active
Activity [26]: Non-Toxic

Compound: CCN(CC)CCCCCCOc1ccc(C(c2ccc(OCCCCCCN(CC)CC)cc2)=C2[C@H]3C[C@@H]4C[C@@H](C[C@H]2C4)C3)cc1
half-life [38]: 61.8 h

Continued, in another order:

half-life [2]: 31.5 h
Compound: C[N+]1(CCCCCCOc2ccc(C(c3ccc(Cl)cc3)=C3C4C[C@H]5C[C@@H](C4)C[C@H]3C5)cc2)CCCC1.[I-]
Activity (DT-22 [3]): Active
Activity [4]: Non-Toxic

half-life [2]: 36.8 h
AUC(0-t) at 48 h [24]: 150 µM·h
Compound: C[n+]1ccn(CCCCCCOc2ccc(C(=C3C4CC5CC(C4)CC3C5)c3ccc(Cl)cc3)cc2)c1.[I-]

inhibition [27]: Active
half-life [2]: 26.7 h
inhibition [28]: Active
inhibition [29]: Active
inhibition [30]: Active
inhibition [31]: Active
inhibition [32]: Active
inhibition [33]: Active
inhibition [35]: Active
inhibition [36]: Active
inhibition [37]: Active
Compound: Clc1ccc(C(=C2C3CC4CC(C3)CC2C4)c2ccc(OCCCCCCN3CCCC3)cc2)cc1
Activity (MCF7): Active
Activity (DT-22 [34]): Active
